# Results from publication PMC8009514 (Langmuir, 2020).
# Like-named read-outs stand apart in the source and are kept apart here. Ends that are not written are not given here.
# Legend:
# [1] = Monomer solubility (cs) from scattered light intensity on dilution; format: physicochemical
# Protocol: Dynamic light scattering (DLS) experiments were performed with an ALV/DLS/SLS-5022F goniometer system with an ALV-7004 correlator at a scattering angle of 90°. The laser source was a 22 mW He–Ne laser with a wavelength of 632.8 nm. The samples were placed in 5 mm glass tubes, kept at 25 °C, and the intensity autocorrelation functions were collected over runs of 300 s, using two avalanche photodiode detectors operating in the pseudo-cross-correlational mode. Light scattering experiments were also performed using a modulated three-dimensional light scattering instrument (LS Instruments GmbH, Switzerland), implementing a laser with a wavelength of 660 nm and two avalanche photodiodes. […] The experimental intensity correlation functions g^(2)(τ) were converted to C(τ) = (g^(2)(τ) – 1)/β = |g^(1)(τ)|^2,[35] where β is an instrumental constant, close to unity, and g^(1)(τ) is the correlation function of the electric field, which was fitted using the cumulant expansion to obtain an average diffusion coefficient.[36] Fitting was performed with an in-house MATLAB script.
# Aggregates begin to form above a particular concentration, which can be interpreted as the monomer solubility, cs. This concentration can be measured, for example, by following the scattered light intensity as a function of dilution of a sample with an initial concentration c > cs.[13] For this purpose, solutions of the peptides at 1 wt % were gradually diluted in order to determine at which concentration the light scattering signal reached the solvent level, which is a good indication of the monomer solubility. […] For A8K, the monomer solubilities of about 10 μM were obtained, which means approximately 2 orders of magnitude smaller compared to that in water.
# [2] = Visual observation of gel-like (arrested) state; format: physicochemical
# Protocol: Previous SAXS experiments on the peptides in water[13],[17] have shown that this concentration could be considered dilute enough not to manifest any effects of interaggregate interactions in the scattering profiles. The first observation made was that the peptide samples in MeOH and DMF were more viscous than the corresponding samples in water prepared at similar concentrations and presented highly viscous (gel-like) states after 5-12 h from solubilization (Figure 2).
# [3] = cited from earlier work
# Source text: Aggregates begin to form above a particular concentration, which can be interpreted as the monomer solubility, cs. This concentration can be measured, for example, by following the scattered light intensity as a function of dilution of a sample with an initial concentration c > cs.[13] For this purpose, solutions of the peptides at 1 wt % were gradually diluted in order to determine at which concentration the light scattering signal reached the solvent level, which is a good indication of the monomer solubility. With this method, monomer solubilities of 2 mM and 7 μM in water were determined f ...
# [4] = cited from earlier work; remark: listed apart in the source
# Source text: Table 1 Some Physicochemical Properties of the Three Solvents in Which the Self-Assembly of the Peptides Was Investigated | column: H2O; MeOH; DMF
# [5] = light scattering intensity on dilution; peptide in methanol, 1 wt % solution gradually diluted, mean count rate at 90°; concentration at which the signal reaches the solvent level is taken as monomer solubility; settings: other: light scattering intensity on dilution
# [6] = light scattering intensity on dilution; peptide in N,N-dimethylformamide, 1 wt % solution gradually diluted, mean count rate at 90°; concentration at which the signal reaches the solvent level is taken as monomer solubility; settings: other: light scattering intensity on dilution
# [7] = biological target: the molecule itself; assay: as above
molecule,measurement,setting,value
AAAAAAAAK [A8K],monomer solubility cs,[1],about 10 μM
same,time from solubilization to highly viscous (gel-like) state,[2],5 to 12 h
same,monomer solubility cs,[3],2000 µM
CCCCCCCCCCCCOS(=O)(=O)[O-].[Na+] [SDS],CMC of SDS at 25 °C,[4]; in DMF,14.6 mM
same,CMC of SDS at 25 °C,[4]; in H2O,7.8 mM
same,CMC of SDS at 25 °C,[4]; in MeOH,6.9 mM
CCCCCC [hexane],solubility of hexane at 25 °C,[4]; in H2O,0.0124 mg/mL
same,solubility of hexane at 25 °C,[4]; in MeOH,604 mg/mL
C[C@H](N)C(=O)N[C@@H](C)C(=O)N[C@@H](C)C(=O)N[C@@H](C)C(=O)N[C@@H](C)C(=O)N[C@@H](C)C(=O)N[C@@H](C)C(=O)N[C@@H](C)C(=O)N[C@@H](C)C(=O)N[C@@H](C)C(=O)N[C@@H](CCCCN)C(=O)O [A10K],monomer solubility cs,"[1]; in DMF, 1 wt % TFA-salt solution gradually diluted until light scattering signal reached solvent level, mean count rate at 90°, average of three runs of 100 s",approximately the same solubilities
same,monomer solubility cs,"[1]; in MeOH, 1 wt % TFA-salt solution gradually diluted until light scattering signal reached solvent level, mean count rate at 90°, average of three runs of 100 s",approximately the same solubilities
same,time from solubilization to highly viscous (gel-like) state,[2]; samples around 1 wt % in MeOH and DMF,5 to 12 h
same,monomer solubility cs,"[3]; in water, scattered light intensity on dilution of a sample with c > cs",7 µM
AAAAAAAAK [A8K amphiphilic model peptide],monomer solubility cs (concentration above which aggregates form),[5],"For A8K, the monomer solubilities of about 10 μM were obtained"
same,monomer solubility cs (concentration above which aggregates form),[6],"For A8K, the monomer solubilities of about 10 μM were obtained"
"AAAAAAAAAAK (unprotected N-terminus; 11 residues, 857 g/mol; Designed model peptide; The printed molecular weight (857 g/mol) fits free N- and C-termini; TFA counterions are present; also called AnK (n = 10); source: synthetic peptide; bought: CPC Scientific Inc., trifluoroacetate salt, purity >96%, used without further purification) [A10K amphiphilic model peptide]",binding result,[7],binds
